From PMC10663837 (iScience, 2023)

What was measured:
PD-L1 and PD-L2 = conditions: Hsp90 N-terminal inhibitors; cited from earlier work
[1] = system: MEFs, MCF10A, E0771, Hs578T cells; assay: Cytotoxicity to normal versus cancer cells; type: cell-based, mouse and human; conditions: 24, 48, 72 h; EnnA 1.25-20 µM, 17AAG 0.15-5 µM; absorbance 490 nm
E0771 transcriptome = assay: Bulk RNA-seq of E0771 cells; type: cell-based, murine; conditions: ∼14%
[2] = system: Hsp90 client proteins, Hsp70, Hsp40, Hsp27; assay: Western blot of Hsp90 client and heat shock proteins in cells; type: cell-based, human and murine
4T1 tumors = assay: Histology; type: in vivo, mouse
[3] = system: cytokine/chemokine mRNA in E0771 cells; assay: RTqPCR of cytokines, chemokines and CX3CR1
[4] = system: 4T1 tumor-infiltrating CD8+ T cells; assay: Immunofluorescence of 4T1 tumor-infiltrating immune cells; type: in vivo, mouse; conditions: EnnA 10 mg/kg/48 h, 17-AAG 25 mg/kg/48 h
[5] = system: progesterone receptor (PR) refolding by Hsp90 chaperone machine; assay: Progesterone receptor; type: biochemical, rabbit
Hsp90β/p23 = assay: Co-immunoprecipitation of purified Hsp90β with p23; type: binding, human; conditions: 40 μM EnnA or 5 μM 17-AAG, 5 mM ATP, 30 min 30°C
Hsp90β/HOP = assay: Co-immunoprecipitation of purified Hsp90β with HOP; type: binding, human; conditions: 40 μM EnnA or 5 μM 17-AAG, 5 mM ATP, 30 min 30°C
MDA-MB-231 cells = assay: Flow cytometry of surface Hsp90, calreticulin, HMGB1, MDA-MB-231 cells; type: cell-based, human; conditions: 7.5 μM EnnA, 0.5 µM 17-AAG, 24h
E0771 tumors = assay: EnnA combined with CX3CR1 antagonist JMS-17-2, E0771 tumors; type: in vivo, mouse; conditions: JMS-17-2 10 mg/kg i.p. every 48 h alternating with EnnA 10 mg/kg
[6] = system: lung breast cancer metastasis; conditions: cited from earlier work
cancer cells [7] = conditions: cited from earlier work
Hsp90β [8] = conditions: cited from earlier work
[9] = system: patient-derived human melanoma cells; conditions: cited from earlier work
Hsp90β [10] = assay: Cellular thermal shift assay; type: cell-based, murine; conditions: E0771 cells, 20 μM, 90 mn
cancer cells [11] = conditions: cited from earlier work; remark: listed apart in the source
Human Hsp90β, purified = Human Hsp90β, purified (human, UniProt P08238 1-724); assay: co-IP
Sequence of Human Hsp90β, purified (P08238 whole entry): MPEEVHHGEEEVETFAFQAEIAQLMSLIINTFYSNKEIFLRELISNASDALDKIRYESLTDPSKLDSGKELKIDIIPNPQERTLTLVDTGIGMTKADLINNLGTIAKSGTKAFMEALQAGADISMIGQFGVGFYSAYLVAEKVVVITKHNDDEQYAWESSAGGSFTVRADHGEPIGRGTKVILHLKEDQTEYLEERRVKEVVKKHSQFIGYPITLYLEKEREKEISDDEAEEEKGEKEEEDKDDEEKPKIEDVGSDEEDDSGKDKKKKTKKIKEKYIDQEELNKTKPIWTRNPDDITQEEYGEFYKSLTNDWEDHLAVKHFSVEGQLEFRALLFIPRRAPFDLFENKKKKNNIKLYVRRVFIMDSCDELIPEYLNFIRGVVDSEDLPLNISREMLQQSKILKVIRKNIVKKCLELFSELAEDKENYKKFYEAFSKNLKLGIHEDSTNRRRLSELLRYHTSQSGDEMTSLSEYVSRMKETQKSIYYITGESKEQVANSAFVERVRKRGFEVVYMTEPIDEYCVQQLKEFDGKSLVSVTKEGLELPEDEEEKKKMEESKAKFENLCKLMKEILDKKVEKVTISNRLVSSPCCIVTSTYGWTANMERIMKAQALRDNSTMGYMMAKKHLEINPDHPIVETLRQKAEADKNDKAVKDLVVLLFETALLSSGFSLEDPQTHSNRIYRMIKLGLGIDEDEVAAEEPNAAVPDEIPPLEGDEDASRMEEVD

Question: Which “transcription and cell-surface expression of PD-L1 and PD-L2” value (PD-L1 and PD-L2) does the source give for `CC(C)NCCCn1c(Sc2cc3c(cc2I)OCO3)nc2c(N)ncnc21` [PU-H71] here?
Answer: significant decrease in the transcription and cancer cell-surface expression of immune checkpoint ligands PD-L1 and PD-L2

Question: With `C=CCNC1=C2C[C@@H](C)C[C@H](OC)[C@H](O)[C@@H](C)/C=C(\C)[C@H](OC(N)=O)[C@@H](OC)/C=C\C=C(/C)C(=O)NC(=CC1=O)C2=O` [17-AAG, 17-N-allylamino-demethoxygeldanamycin] as the molecule, how does the “discrimination between cancer and non-transformed cells” value [1] read?
Answer: does not discriminate between cancer and non-transformed immortalized cells in cell culture

Question: What about the “number of genes in common between EnnA and 17-AAG” value (E0771 transcriptome) of the same molecule?
Answer: 34 genes

Question: And the “heat shock response (mRNA and protein of Hsp70, Hsp40, Hsp27)” value ([2]; 0.5 μM 17-AAG)?
Answer: upregulation of mRNA and protein levels of Hsp70, Hsp40, and Hsp27

Question: And the “Hsp90 client protein level” value ([2]; EnnA at EC50, 0.5 μM 17-AAG)?
Answer: induced Hsp90 client protein degradation

Question: What about the tumor necrosis (4T1 tumors; 4T1, H&E, EnnA 10 mg/kg, 17-AAG 25 mg/kg) of the same molecule?
Answer: more necrotic than controls

Question: And the “immune-like cell infiltration of necrotic areas” value (4T1 tumors; 4T1 tumors)?
Answer: not as infiltrated as in the case of EnnA-treated animals

Question: And the “IL10 mRNA” value ([3]; E0771, RNA-seq and RTqPCR)?
Answer: decreased mRNA expression of anti-inflammatory cytokines such as IL10

Question: And the “pro-inflammatory cytokines IL12b, TNFα, IL1β mRNA” value ([3]; RTqPCR)?
Answer: limited impact on these inflammatory cytokines

Question: And the “CD8+ T cell infiltration” value [4]?
Answer: much less so in the 17-AAG-treated group

Question: And the “accumulation of Hsp70-rich intermediate chaperoning complexes” value ([5]; SDS-PAGE/Coomassie, 1 μM 17-AAG, 10 μM EnnA)?
Answer: accumulation of the intermediate chaperoning complexes rich with Hsp70 as observed with 17-AAG

Question: And the “effect on Hsp90β binding to p23” value (Hsp90β/p23)?
Answer: as with 17-AAG, EnnA disrupts Hsp90β binding to p23

Question: And the “effect on Hsp90β binding to HOP” value (Hsp90β/HOP)?
Answer: unlike 17-AAG, EnnA does not affect HOP binding to purified Hsp90β

Question: And the “surface exposure of Hsp90, calreticulin, HMGB1 vs 17-AAG” value (MDA-MB-231 cells)?
Answer: not induced by 17-AAG

Question: Which results are given for `Cl.O=c1c2cccn2c2ccccc2n1CCCN1CCC(c2ccc(Cl)cc2)CC1` [JMS-17-2, 5-[3-[4-(4-Chlorophenyl)-1-piperidinyl]propyl]pyrrolo[1,2-a]quinoxalin-4(5H)-one hydrochloride]?
Answer: effect on EnnA antitumor efficacy (E0771 tumors): significantly reduced the efficacy of EnnA; lung breast cancer metastasis [6]: reduce lung breast cancer metastasis

Question: Which “transcription and cell-surface expression of PD-L1 and PD-L2” value (PD-L1 and PD-L2) does the source give for `CCNC(=O)c1noc(-c2cc(C(C)C)c(O)cc2O)c1-c1ccc(CN2CCOCC2)cc1` [Luminespib] here?
Answer: significant decrease in the transcription and cancer cell-surface expression of immune checkpoint ligands PD-L1 and PD-L2

Question: Which results are given for `CC(C)=CCC[C@]1(C)C=Cc2c(O)c3c(c(CC=C(C)C)c2O1)O[C@]12C(=C[C@@H]4C[C@H]1C(C)(C)O[C@@]2(C/C=C(/C)C(=O)O)C4=O)C3=O` [GBA]?
Answer: mode of cancer cell death (cancer cells [7]): GBA-induced cancer cell paraptosis; binding to Hsp90β middle domain (Hsp90β [8]): binds selectively to the middle domain of Hsp90β

Question: With `COC1=C2C[C@@H](C)C[C@H](OC)[C@H](O)[C@@H](C)/C=C(\C)[C@H](OC(N)=O)[C@@H](OC)/C=C\C=C(/C)C(=O)NC(=CC1=O)C2=O` [geldanamycin] as the molecule, how does the “transcription and cell-surface expression of PD-L1 and PD-L2” value (PD-L1 and PD-L2) read?
Answer: significant decrease in the transcription and cancer cell-surface expression of immune checkpoint ligands PD-L1 and PD-L2

Question: Which results are given for `CC(C)c1cc(-c2n[nH]c(=O)n2-c2ccc3c(ccn3C)c2)c(O)cc1O` [ganetespib]?
Answer: transcription and cell-surface expression of PD-L1 and PD-L2 (PD-L1 and PD-L2): significant decrease in the transcription and cancer cell-surface expression of immune checkpoint ligands PD-L1 and PD-L2; T-cell-mediated killing of melanoma cells ([9]; autologous T cells in vitro): enhances T-cell-mediated killing of patient-derived human melanoma cells; effect on anti-CTLA4 and anti-PD-1 therapy ([9]; in vivo): potentiates responses to anti-CTLA4 and anti-PD-1 therapy in vivo

Question: With `CC1(C)CC(=O)c2c(C(F)(F)F)nn(-c3ccc(C(N)=O)c(N[C@H]4CC[C@H](OC(=O)CN)CC4)c3)c2C1` [SNX-5422] as the molecule, how does the “transcription and cell-surface expression of PD-L1 and PD-L2” value (PD-L1 and PD-L2) read?
Answer: significant decrease in the transcription and cancer cell-surface expression of immune checkpoint ligands PD-L1 and PD-L2

Question: For Enniatin B [AD96], which “inhibition of PR refolding” value ([5]; RRL, Figures S1A–S1C, 10 µM drug in screen) is on record?
Answer: did not inhibit the PR refolding

Question: And the “CETSA stabilization of Hsp90” value (Hsp90β [10])?
Answer: did not stabilize Hsp90

Question: For `CC(C)C[C@H](NC(=O)[C@H](Cc1ccccc1)NC(=O)c1cnccn1)B(O)O` [bortezomib], which “Hsp90 exposure at cell surface” value (cancer cells [11]) is on record?
Answer: expose Hsp90 at the cell surface

B1: Human p23, purified (natural protein, UniProt Q15185 1-160, looked up)
chain: MQPASAKWYDRRDYVFIEFCVEDSKDVNVNFEKSKLTFSCLGGSDNFKHLNEIDLFHCIDPNDSKHKRTDRSILCCLRKGESGQSWPRLTKERAKLNWLSVDFNNWKDWEDDSDEDMSNFDRFSEMMNNMGGDEDVDLPEVDGADDDSQDSDDEKMPDLE
Question: Does B1 bind (Human Hsp90β, purified)?
Answer: binds
